The test has as its target T1, Human complement C1s enzyme (Homo sapiens, UniProt P09871).
T1 sequence (P09871 438-688 limits assumed): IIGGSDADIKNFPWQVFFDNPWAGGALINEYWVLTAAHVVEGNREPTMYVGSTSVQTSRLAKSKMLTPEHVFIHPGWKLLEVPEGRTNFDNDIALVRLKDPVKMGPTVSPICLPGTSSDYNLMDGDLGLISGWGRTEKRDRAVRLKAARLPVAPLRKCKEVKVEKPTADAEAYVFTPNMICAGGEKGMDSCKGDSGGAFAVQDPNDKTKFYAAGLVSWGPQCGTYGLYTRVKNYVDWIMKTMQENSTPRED
T1 sequence (P09871 16-437 partner limits assumed): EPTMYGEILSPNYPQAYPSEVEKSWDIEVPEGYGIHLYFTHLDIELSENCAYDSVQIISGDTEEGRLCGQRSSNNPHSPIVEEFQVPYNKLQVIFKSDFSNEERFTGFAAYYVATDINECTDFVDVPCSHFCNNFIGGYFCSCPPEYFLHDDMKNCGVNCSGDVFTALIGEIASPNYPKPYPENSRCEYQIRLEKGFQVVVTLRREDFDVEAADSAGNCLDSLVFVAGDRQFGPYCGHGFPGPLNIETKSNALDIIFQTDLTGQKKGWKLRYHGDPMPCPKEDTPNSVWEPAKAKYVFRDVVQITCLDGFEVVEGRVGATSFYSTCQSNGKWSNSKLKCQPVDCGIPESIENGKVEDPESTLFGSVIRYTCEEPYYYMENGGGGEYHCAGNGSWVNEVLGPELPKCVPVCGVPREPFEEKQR
Briefly: Human C1s enzyme assay. In kind it is biochemical. Particulars: human complement C1s enzyme 1.16 nM, substrate Z-L-Lys-SBzl 100 μM, 5 min preincubation; read-out: IC50 (Stars), C1s Inhibiting Activity. In a few lines:
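Serum-purified human C1s (1.16 nM final) preincubated 5 min at room temperature with compound in 50 mM Tris, 1 M NaCl, pH 7.5. Z-L-Lys-SBzl and DTNB added at 100 μM each; A405 followed every 30 s for 30 min, and IC50 obtained by nonlinear regression of reaction rates.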

Bounds are passed on as bounds.

By IC50 is commonly meant the concentration at which inhibition is half-maximal. Turning to `Cc1cc(F)ccc1Oc1ccc(C(=O)NCC(=O)N2C[C@H](OC(F)F)C[C@H]2C(=O)NCc2cc3cnccc3[nH]2)cc1` [Compound 308, (2S,4R)-N-((1H-pyrrolo[3,2-c]pyridin-2-yl)methyl)-4-(difluoromethoxy)-1-((4-(4-fluoro-2-methylphenoxy)benzoyl)glycyl)pyrrolidine-2-carboxamide], the IC50 is < 100 nM.

In the case of `O=C(NCC(=O)N1C[C@H](OC(F)F)C[C@H]1C(=O)NCc1cc2cnccc2[nH]1)c1cccc(Oc2ccsc2)c1` [Compound 303, (2S,4R)-4-(difluoromethoxy)-N-(1H-pyrrolo[3,2-c]pyridin-2-ylmethyl)-1-[2-[[3-(3-thienyloxy)benzoyl]amino]acetyl]pyrrolidine-2-carboxamide], the IC50 was < 100 nM.

As to `O=C(NCC(=O)N1CC2(C[C@H]1C(=O)NCc1cc3ccccc3[nH]1)OCCO2)c1ccc2c(c1)Oc1ccccc1S2` [Compound 29, (S)-N-((1H-indol-2-yl)methyl)-7-((phenoxathiine-3-carbonyl)glycyl)-1,4-dioxa-7-azaspiro[4.4]nonane-8-carboxamide], the IC50 is > 1000 nM.

In the case of `Cc1ccc(Oc2ccnc(C(=O)NCC(=O)N3C[C@H](OC(F)F)C[C@H]3C(=O)NCc3cc4cnccc4[nH]3)c2)c(F)c1` [Compound 323, N-(2-((2S,4R)-2-(((1H-pyrrolo[3,2-c]pyridin-2-yl)methyl)carbamoyl)-4-(difluoromethoxy)pyrrolidin-1-yl)-2-oxoethyl)-4-(2-fluoro-4-methylphenoxy)picolinamide], the IC50 was < 100 nM.

`O=C(NCC(=O)N1C[C@H](OC(F)F)C[C@H]1C(=O)NCc1cnc2c(c1)CNC2)c1ccc2c(c1)Oc1ccccc1S2` [Compound 253, (2S,4R)-4-(difluoromethoxy)-N-((6,7-dihydro-5H-pyrrolo[3,4-b]pyridin-3-yl)methyl)-1-((phenoxathiine-3-carbonyl)glycyl)pyrrolidine-2-carboxamide]: the IC50 lay in the range of 100 to 1000 nM.

Turning to `O=C(NCC(=O)N1C[C@H](OC(F)F)C[C@H]1C(=O)NCc1ccc2[nH]ncc2c1)c1ccc2c(c1)Oc1ccccc1S2` [Compound 192, (2S,4R)-N-((1H-indazol-5-yl)methyl)-4-(difluoromethoxy)-1-((phenoxathiine-3-carbonyl)glycyl)pyrrolidine-2-carboxamide], the IC50 is > 1000 nM.

With `C[C@H]1C[C@@H](C(=O)N[C@H](C)c2cc3cnccc3[nH]2)N(C(=O)CNC(=O)c2ccc3c(c2)Oc2ccccc2S3)C1` [Compound 165, (2S,4S)-N-((R)-1-(1H-pyrrolo[3,2-c]pyridin-2-yl)ethyl)-4-methyl-1-((phenoxathiine-3-carbonyl)glycyl)pyrrolidine-2-carboxamide], the concentration for half-maximal inhibition (IC50) was < 100 nM.

Take `C[C@@]12C[C@@H]1N(C(=O)CNC(=O)c1ccc3c(c1)Oc1ccccc1S3)[C@H](C(=O)NCc1ccc3c(c1)B(O)OC3)C2` [Compound 290, (1S,3S,5S)-N-((1-hydroxy-1,3-dihydrobenzo[c][1,2]oxaborol-6-yl)methyl)-5-methyl-2-((phenoxathiine-3-carbonyl)glycyl)-2-azabicyclo[3.1.0]hexane-3-carboxamide]: the half-maximal inhibitory concentration (IC50) is > 1000 nM.

Consider `O=C(NCC(=O)N1C[C@@](F)(CF)C[C@H]1C(=O)N[C@H](CO)c1cc2cnccc2[nH]1)c1ccc(Oc2ccc(F)cc2)cc1` [Compound 95, (2S,4R)-4-fluoro-4-(fluoromethyl)-1-((4-(4-fluorophenoxy)benzoyl)glycyl)-N-((S)-2-hydroxy-1-(1H-pyrrolo[3,2-c]pyridin-2-yl)ethyl)pyrrolidine-2-carboxamide], for which the concentration for half-maximal inhibition (IC50) is > 1000 nM.

For the compound `O=C(NCC(=O)N1CC2(C[C@H]1C(=O)NCc1ccn[nH]1)OCCO2)c1ccc(Oc2ccccc2)cc1` [Compound 12, (S)-N-((1H-pyrazol-5-yl)methyl)-7-((4-phenoxybenzoyl)glycyl)-1,4-dioxa-7-azaspiro[4.4]nonane-8-carboxamide], the 50% inhibitory concentration (IC50) is > 1000 nM.

On to `C[C@@]12C[C@@H]1N(C(=O)CNC(=O)CCCOc1ccccc1)[C@H](C(=O)NC1(c3ccc4c(c3)CNCC4)CC1)C2` [Compound 62, (1S,3S,5S)-5-methyl-2-((4-phenoxybutanoyl)glycyl)-N-(1-(1,2,3,4-tetrahydroisoquinolin-7-yl)cyclopropyl)-2-azabicyclo[3.1.0]hexane-3-carboxamide], for which the IC50 was > 1000 nM.

With `Cc1ccc(Oc2cccc(C(=O)NCC(=O)N3C[C@H](OC(F)F)C[C@H]3C(=O)NCc3cc4c(s3)CNCC4)c2)c(F)c1` [Compound 339, (2S,4R)-4-(difluoromethoxy)-1-((3-(2-fluoro-4-methylphenoxy)benzoyl)glycyl)-N-((4,5,6,7-tetrahydrothieno[2,3-c]pyridin-2-yl)methyl) pyrrolidine-2-carboxamide], the IC50 is < 100 nM.

In the case of `O=C(NCC(=O)N1C[C@H](OC(F)F)C[C@H]1C(=O)NCc1cc2cnccc2s1)c1cccc(Oc2ccccc2)c1` [Compound 235, (2S,4R)-4-(difluoromethoxy)-1-((3-phenoxybenzoyl)glycyl)-N-(thieno[3,2-c]pyridin-2-ylmethyl)pyrrolidine-2-carboxamide], the IC50 is < 100 nM.

Regarding `C[C@@H](NC(=O)[C@@H]1C[C@](F)(CF)CN1C(=O)CNC(=O)c1ccc2c(c1)Oc1ccccc1S2)c1cc2cnccc2[nH]1` [Compound 164, (2S,4R)-N-((R)-1-(1H-pyrrolo[3,2-c]pyridin-2-yl)ethyl)-4-fluoro-4-(fluoromethyl)-1-((phenoxathiine-3-carbonyl)glycyl)pyrrolidine-2-carboxamide], the 50% inhibitory concentration (IC50) was < 100 nM.

As for `CC(NC(=O)[C@@H]1CC2(CN1C(=O)CNC(=O)c1ccc3c(c1)Oc1ccccc1S3)OCCO2)c1cc2cnccc2[nH]1` (stereo in doubt) [Compound 102, (S)-N-((S)-1-(1H-pyrrolo[3,2-c]pyridin-2-yl)ethyl)-7-((phenoxathiine-3-carbonyl)glycyl)-1,4-dioxa-7-azaspiro[4.4]nonane-8-carboxamide], the IC50 was < 100 nM.

In the case of `C[C@@]12C[C@@H]1N(C(=O)CNC(=O)c1cccc(Oc3ccc(F)cc3)c1)[C@H](C(=O)NCc1cc3cnccc3[nH]1)C2` [Compound 153, (1S,3S,5S)-N-((1H-pyrrolo[3,2-c]pyridin-2-yl)methyl)-2-((3-(4-fluorophenoxy)benzoyl)glycyl)-5-methyl-2-azabicyclo[3.1.0]hexane-3-carboxamide], the IC50 was < 100 nM.

Regarding `C[C@@]12C[C@@H]1N(C(=O)CNC(=O)CCCOc1ccccc1)[C@H](C(=O)N[C@H]1CCn3c(CN)ccc31)C2` [Compound 69, (1S,3S,5S)-N-((S)-5-(aminomethyl)-2,3-dihydro-1H-pyrrolizin-1-yl)-5-methyl-2-((4-phenoxybutanoyl)glycyl)-2-azabicyclo[3.1.0]hexane-3-carboxamide], the IC50 was > 1000 nM.

Consider `O=C(NCC(=O)N1C[C@H](OC(F)F)C[C@H]1C(=O)NCc1ccc2nncn2c1)c1ccc2c(c1)Oc1ccccc1S2` [Compound 225, (2S,4R)-N-([1,2,4]triazolo[4,3-a]pyridin-6-ylmethyl)-4-(difluoromethoxy)-1-((phenoxathiine-3-carbonyl)glycyl)pyrrolidine-2-carboxamide], for which the half-maximal inhibitory concentration (IC50) was > 1000 nM.

Turning to `C[C@@H](NC(=O)[C@@H]1C[C@@H](OC(F)F)CN1C(=O)CNC(=O)c1ccc(Oc2ccc(F)cc2)cc1)c1cc2cnccc2s1` [Compound 205, (2S,4R)-4-(difluoromethoxy)-1-((4-(4-fluorophenoxy)benzoyl)glycyl)-N-((R)-1-(thieno[3,2-c]pyridin-2-yl)ethyl)pyrrolidine-2-carboxamide], the half-inhibitory concentration (IC50) was 100 to 1000 nM.

Consider `O=C(NCC(=O)N1CC2(C[C@H]1C(=O)N[C@H](CO)c1cc3cnccc3[nH]1)OCCO2)c1ccc(Oc2ccc(F)cc2)cc1` [Compound 94, (S)-7-((4-(4-fluorophenoxy)benzoyl)glycyl)-N-((S)-2-hydroxy-1-(1H-pyrrolo[3,2-c]pyridin-2-yl)ethyl)-1,4-dioxa-7-azaspiro[4.4]nonane-8-carboxamide], for which the IC50 is > 1000 nM.

As for `O=C(NCC(=O)N1CC2(C[C@H]1C(=O)NCc1nc3cnccc3[nH]1)OCCO2)c1ccc2c(c1)Oc1ccccc1S2` [Compound 49, (S)-N-((1H-imidazo[4,5-c]pyridin-2-yl)methyl)-7-((phenoxathiine-3-carbonyl)glycyl)-1,4-dioxa-7-azaspiro[4.4]nonane-8-carboxamide], the concentration for half-maximal inhibition (IC50) is > 1000 nM.

Take `O=C(NCC(=O)N1CC[C@@H](O)[C@H]1C(=O)NCc1cc2cnccc2[nH]1)c1ccc2c(c1)Oc1ccccc1S2` [Compound 158, (2S,3R)-N-((1H-pyrrolo[3,2-c]pyridin-2-yl)methyl)-3-hydroxy-1-((phenoxathiine-3-carbonyl)glycyl)pyrrolidine-2-carboxamide]: the 50% inhibitory concentration (IC50) was < 100 nM.

As to `O=C(NCC(=O)N1C[C@H](OC(F)F)C[C@H]1C(=O)NCc1cc2cnccc2[nH]1)c1cccc(Oc2ccc(F)cc2)c1` [Compound 154, (2S,4R)-N-((1H-pyrrolo[3,2-c]pyridin-2-yl)methyl)-4-(difluoromethoxy)-1-((3-(4-fluorophenoxy)benzoyl)glycyl)pyrrolidine-2-carboxamide], the concentration for half-maximal inhibition (IC50) was < 100 nM.

The record behind these values is patent publication US20260062443A1 (ALEXION PHARMACEUTICALS, INC., priority 2022, published 2026).
